The source of these data is US20120027720A1, “PEPTIDE CONJUGATES” (priority 2008, published 2012).

Where no end group is shown, it is not given here. [ ]: non-standard residue; d: D form. AllylGly = C=CC[C@H](N)C(=O)O

The subject of experiment [1] is CaCo2 monolayers. In words: Trans Epithelial Electric Resistance (TEER) across cell monolayer. It is filed as cell-based. More on the design: key to Reduced TEER: + indicates an enhancement of the permeability of the tight junctions were observed; − indicates no enhancement of permeability was observed. The following applies: Caco-2 monolayer. A digest of the protocol:
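Caco-2 cells, passage 40-60, grown 21-28 days on Transwell filters, equilibrated 30 min at 37° C in MHBSS pH 7.4. Test compound with Lucifer Yellow applied apically (n=3), incubated at 37° C with 50 RPM shaking; TEER measured at baseline and at 30, 60, 120 and 180 min.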

In experiment [2] the test system is CaCo2 monolayers. In words: Epithelial flux of Lucifer Yellow through cell monolayer. It is filed as cell-based. The following applies: Lucifer Yellow flux, Caco-2 monolayer. More on the design: key to Enhanced LY permeability: + indicates an enhancement of the permeability of the tight junctions were observed; − indicates no enhancement of permeability was observed. In a few lines: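 Caco-2 cells (passage 40-60) grown 21-28 days on Transwell filters, equilibrated 30 min at 37 °C in HBSS-HEPES pH 7.4; Lucifer Yellow with test compound applied apically, n=3 filters. Basolateral samples at 60, 120, 180 min read by fluorescence at 485/535 nm against standard curve; TEER also measured.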

Turning to “186 (M[AllylGly]IGRL-NH2; N-terminus assumed; SMILES C=CC[C@H](NC(=O)[C@@H](N)CCSC)C(=O)N[C@H](C(=O)NCC(=O)N[C@@H](CCCNC(=N)N)C(=O)N[C@@H](CC(C)C)C(N)=O)[C@@H](C)CC) [compound 186]”, the “Reduced TEER” value with CaCo2 monolayers [1] is “−”. The “Enhanced LY permeability” value in the experiment with CaCo2 monolayers [2] is “−”.
In the case of “187 (Q[AllylGly]IGRL-NH2; N-terminus assumed; SMILES C=CC[C@H](NC(=O)[C@@H](N)CCC(N)=O)C(=O)N[C@H](C(=O)NCC(=O)N[C@@H](CCCNC(=N)N)C(=O)N[C@@H](CC(C)C)C(N)=O)[C@@H](C)CC) [compound 187]”, the “Reduced TEER” value in the experiment on CaCo2 monolayers [1] was “−”. Further, the “Enhanced LY permeability” value in the experiment with CaCo2 monolayers [2] was “−”.
In the case of “188 (L[AllylGly]IGRL-NH2; N-terminus assumed; SMILES C=CC[C@H](NC(=O)[C@@H](N)CC(C)C)C(=O)N[C@H](C(=O)NCC(=O)N[C@@H](CCCNC(=N)N)C(=O)N[C@@H](CC(C)C)C(N)=O)[C@@H](C)CC) [compound 188]”, the “Reduced TEER” value in the experiment with CaCo2 monolayers [1] is reported as “−”. Moreover, in the experiment on CaCo2 monolayers [2], the “Enhanced LY permeability” value was “−”.
For “189 (S[AllylGly]IGRL-NH2; N-terminus assumed; SMILES C=CC[C@H](NC(=O)[C@@H](N)CO)C(=O)N[C@H](C(=O)NCC(=O)N[C@@H](CCCNC(=N)N)C(=O)N[C@@H](CC(C)C)C(N)=O)[C@@H](C)CC) [compound 189]”, the “Reduced TEER” value with CaCo2 monolayers [1] is given as “−”. In addition, the “Enhanced LY permeability” value in the experiment with CaCo2 monolayers [2] is recorded as “−”.
In the case of “190 (T[AllylGly]IGRL-NH2; N-terminus assumed; SMILES C=CC[C@H](NC(=O)[C@@H](N)[C@@H](C)O)C(=O)N[C@H](C(=O)NCC(=O)N[C@@H](CCCNC(=N)N)C(=O)N[C@@H](CC(C)C)C(N)=O)[C@@H](C)CC) [compound 190]”, the “Reduced TEER” value in the experiment with CaCo2 monolayers [1] is “−”. Also, in the experiment with CaCo2 monolayers [2], the “Enhanced LY permeability” value is listed as “−”.
“191 (E[AllylGly]IGRL-NH2; N-terminus assumed; SMILES C=CC[C@H](NC(=O)[C@@H](N)CCC(=O)O)C(=O)N[C@H](C(=O)NCC(=O)N[C@@H](CCCNC(=N)N)C(=O)N[C@@H](CC(C)C)C(N)=O)[C@@H](C)CC) [compound 191]”: in the experiment with CaCo2 monolayers [1], the “Reduced TEER” value is recorded as “−”. Besides, the “Enhanced LY permeability” value in the experiment with CaCo2 monolayers [2] was “−”.
Regarding “192 (V[AllylGly]IGRL-NH2; N-terminus assumed; SMILES C=CC[C@H](NC(=O)[C@@H](N)C(C)C)C(=O)N[C@H](C(=O)NCC(=O)N[C@@H](CCCNC(=N)N)C(=O)N[C@@H](CC(C)C)C(N)=O)[C@@H](C)CC) [compound 192]”, in the experiment on CaCo2 monolayers [1], the “Reduced TEER” value was “−”. Further, the “Enhanced LY permeability” value in the experiment on CaCo2 monolayers [2] is given as “−”.
Turning to “193 (Y[AllylGly]IGRL-NH2; N-terminus assumed; SMILES C=CC[C@H](NC(=O)[C@@H](N)Cc1ccc(O)cc1)C(=O)N[C@H](C(=O)NCC(=O)N[C@@H](CCCNC(=N)N)C(=O)N[C@@H](CC(C)C)C(N)=O)[C@@H](C)CC) [compound 193]”, in the experiment with CaCo2 monolayers [1], the “Reduced TEER” value was “−”. The “Enhanced LY permeability” value in the experiment with CaCo2 monolayers [2] is listed as “−”.
Turning to “194 (G[AllylGly]IGRL-NH2; N-terminus assumed; SMILES C=CC[C@H](NC(=O)CN)C(=O)N[C@H](C(=O)NCC(=O)N[C@@H](CCCNC(=N)N)C(=O)N[C@@H](CC(C)C)C(N)=O)[C@@H](C)CC) [compound 194]”, in the experiment with CaCo2 monolayers [1], the “Reduced TEER” value is reported as “−”. Besides, the “Enhanced LY permeability” value in the experiment with CaCo2 monolayers [2] is given as “−”.
Consider “195 (D[AllylGly]IGRL-NH2; N-terminus assumed; SMILES C=CC[C@H](NC(=O)[C@@H](N)CC(=O)O)C(=O)N[C@H](C(=O)NCC(=O)N[C@@H](CCCNC(=N)N)C(=O)N[C@@H](CC(C)C)C(N)=O)[C@@H](C)CC) [compound 195]”, for which the “Reduced TEER” value with CaCo2 monolayers [1] is “−”. Also, in the experiment on CaCo2 monolayers [2], the “Enhanced LY permeability” value is listed as “−”.
In the case of “196 (W[AllylGly]IGRL-NH2; N-terminus assumed; SMILES C=CC[C@H](NC(=O)[C@@H](N)Cc1c[nH]c2ccccc12)C(=O)N[C@H](C(=O)NCC(=O)N[C@@H](CCCNC(=N)N)C(=O)N[C@@H](CC(C)C)C(N)=O)[C@@H](C)CC) [compound 196]”, the “Reduced TEER” value with CaCo2 monolayers [1] is given as “−”. Besides, the “Enhanced LY permeability” value in the experiment on CaCo2 monolayers [2] is “+”.
